Experimental data published in US9624237B2 (priority 2015, dated 2017).

Assay: Water solubility examination
Assay type: physicochemical
Conditions: 1.44 mg of oridonin in 4 ml water
Procedure: Water solubility of the present nanoparticle is examined. 1.44 mg of oridonin is dissolved in 4 ml water. […] Large amount of white insoluble white oridonin powder is observed. On the other hand, oridonin functionalized selenium nanoparticle containing 1.68 mg of oridonin is prepared according to the present invention and dissolved in 4 ml water. […] The oridonin functionalized selenium nanoparticle aqueous solution is orangey red in color and no insoluble residue is observed.

For Oridonin, the water solubility was “insoluble in water”.
